In ChEMBL document CHEMBL1201862, “PubChem BioAssay data set” (2004):
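Each compound was tested at five concentrations against cells in 96-well plates for 48 hours. GI50 is the concentration that inhibits growth by half.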 The source made the active and inactive calls. Cut-off read from the data, not from the text of the source: active = GI50 up to about 1.1 µM and inactive = higher.

Tests used:
Experiment in all cases: inhibition of tumour cell growth, NCI panel, 48 h
IGROV-1 = system: IGROV-1
NCI-H460 = system: NCI-H460
HL-60 = system: HL-60
Malme-3M = system: Malme-3M
HOP-92 = system: HOP-92
HCT-15 = system: HCT-15
MDA-MB-231 = system: MDA-MB-231
SK-MEL-2 = system: SK-MEL-2
UO-31 = system: UO-31
ACHN = system: ACHN
EKVX = system: EKVX
SK-OV-3 = system: SK-OV-3
MDA-MB-435 = system: MDA-MB-435
MOLT-4 = system: MOLT-4
TK-10 = system: TK-10
OVCAR-4 = system: OVCAR-4
RXF 393 = system: RXF 393
SK-MEL-28 = system: SK-MEL-28
Hs-578T = system: Hs-578T
SR = system: SR

Structure (SMILES) | GI50 (IGROV-1) | GI50 (NCI-H460) | GI50 (HL-60) | GI50 (Malme-3M) | GI50 (HOP-92) | GI50 (HCT-15) [µM] | GI50 (MDA-MB-231) | GI50 (SK-MEL-2) | GI50 (UO-31) | GI50 (ACHN) | GI50 (EKVX) | GI50 (SK-OV-3) | GI50 (MDA-MB-435) | GI50 (MOLT-4) | GI50 (TK-10) | GI50 (OVCAR-4) | GI50 (RXF 393) | GI50 (SK-MEL-28) | GI50 (Hs-578T) | GI50 (SR)
CCOc1cc(-c2nc3ccccn3c2/N=C/c2cc(Br)ccc2O)ccc1O | 20.6 µM (inactive) | 58.3 µM (inactive) | 15 µM (inactive) | 41.1 µM (inactive) | 21.1 µM (inactive) | 8.51 | 30.5 µM (inactive) | 46.1 µM (inactive) | 27 µM (inactive) | 47.5 µM (inactive) | 23 µM (inactive) | 29.2 µM (inactive) | 66.8 µM (inactive) | 45.7 µM (inactive) | 21.1 µM (inactive) | 14.1 µM (inactive) | 16 µM (inactive) | > 100 µM (inactive) | 61.4 µM (inactive) | 35.6 µM (inactive)
CCOC(=O)C(=NN(C)c1ncccc1N)C(=O)OCC | 61 µM (inactive) | > 100 µM (inactive) | 15.1 µM (inactive) | 29.1 µM (inactive) | 23.3 µM (inactive) | 32.9 | 25.6 µM (inactive) | 29.6 µM (inactive) | 38.8 µM (inactive) | – | – | > 100 µM (inactive) | 19.3 µM (inactive) | 21.5 µM (inactive) | 79.3 µM (inactive) | 97.3 µM (inactive) | 84.9 µM (inactive) | > 100 µM (inactive) | > 100 µM (inactive) | 36.2 µM (inactive)
O=C(O)CP(=O)(O)O | > 100 µM (inactive) | > 100 µM (inactive) | > 100 µM (inactive) | > 100 µM (inactive) | > 100 µM (inactive) | > 100 | > 100 µM (inactive) | > 100 µM (inactive) | > 100 µM (inactive) | > 100 µM (inactive) | > 100 µM (inactive) | > 100 µM (inactive) | > 100 µM (inactive) | > 100 µM (inactive) | > 100 µM (inactive) | > 100 µM (inactive) | > 100 µM (inactive) | > 100 µM (inactive) | > 100 µM (inactive) | > 100 µM (inactive)
NC(CC(=O)O)(Cc1ccccc1)C(=O)O (stereo not drawn) | > 100 µM (inactive) | > 100 µM (inactive) | > 100 µM (inactive) | > 100 µM (inactive) | > 100 µM (inactive) | > 100 | > 100 µM (inactive) | > 100 µM (inactive) | > 100 µM (inactive) | > 100 µM (inactive) | > 100 µM (inactive) | > 100 µM (inactive) | > 100 µM (inactive) | > 100 µM (inactive) | > 100 µM (inactive) | > 100 µM (inactive) | > 100 µM (inactive) | > 100 µM (inactive) | > 100 µM (inactive) | > 100 µM (inactive)
CC(C)C(/C=C/c1ccc(Cl)cc1)=N\NC(=O)N/N=C(/C=C/c1ccc(Cl)cc1)C(C)C | 28.8 µM (inactive) | 23 µM (inactive) | > 100 µM (inactive) | 58.5 µM (inactive) | 21.7 µM (inactive) | 71.4 | 22.3 µM (inactive) | 26.4 µM (inactive) | 40.9 µM (inactive) | 29.2 µM (inactive) | 21.4 µM (inactive) | 32.4 µM (inactive) | 30.1 µM (inactive) | 48.8 µM (inactive) | 25.3 µM (inactive) | 19.6 µM (inactive) | 20.7 µM (inactive) | 50.9 µM (inactive) | 20.1 µM (inactive) | 30.8 µM (inactive)
CC(C)(C)c1cc(C(=O)/C=C/c2ccc3c(c2)CCO3)cc(C(C)(C)C)c1O | 2.29 µM (inactive) | 0.76 µM (active) | 0.951 µM (active) | > 100 µM (inactive) | 16.2 µM (inactive) | 1.04 | 2.28 µM (inactive) | 1.29 µM (inactive) | 1.2 µM (inactive) | 1.69 µM (inactive) | 0.729 µM (active) | 1.64 µM (inactive) | 0.327 µM (active) | 2.42 µM (inactive) | 1.31 µM (inactive) | 0.869 µM (active) | 0.216 µM (active) | > 83 µM (inactive) | 1.32 µM (inactive) | 0.548 µM (active)
Cc1nc(-c2ccc(Cl)cc2)cn2c1nc1ccccc12 | 11.1 µM (inactive) | > 100 µM (inactive) | > 31.6 µM (inactive) | > 100 µM (inactive) | > 33.1 µM (inactive) | 19.4 | > 100 µM (inactive) | > 100 µM (inactive) | – | > 100 µM (inactive) | > 100 µM (inactive) | > 100 µM (inactive) | > 100 µM (inactive) | 26.3 µM (inactive) | > 100 µM (inactive) | > 100 µM (inactive) | > 100 µM (inactive) | > 100 µM (inactive) | > 100 µM (inactive) | 90.6 µM (inactive)
O=C(/C=C/c1ccc(O)c(-c2cc(C(=O)/C=C/c3ccc(O)cc3)c(O)cc2O)c1)c1ccc(O)cc1O [RHUSCHALCONE VI] | 24.5 µM (inactive) | > 50 µM (inactive) | 17.3 µM (inactive) | 22.1 µM (inactive) | 24.6 µM (inactive) | > 50 | 29.7 µM (inactive) | 20.7 µM (inactive) | > 50 µM (inactive) | > 50 µM (inactive) | > 50 µM (inactive) | 16.1 µM (inactive) | 21.4 µM (inactive) | 16.1 µM (inactive) | > 50 µM (inactive) | 17.9 µM (inactive) | 17.2 µM (inactive) | 10.4 µM (inactive) | 30 µM (inactive) | 11.4 µM (inactive)
CCN(CC)CCn1c(=O)c2cccnc2n2c3c(=O)n(C)c(=O)n(C)c3nc12 | > 100 µM (inactive) | 36.6 µM (inactive) | 69 µM (inactive) | 65.2 µM (inactive) | > 100 µM (inactive) | 11.6 | > 100 µM (inactive) | > 100 µM (inactive) | 86.1 µM (inactive) | 34.8 µM (inactive) | > 100 µM (inactive) | > 100 µM (inactive) | > 100 µM (inactive) | 34.7 µM (inactive) | 23.2 µM (inactive) | > 100 µM (inactive) | > 100 µM (inactive) | > 100 µM (inactive) | > 100 µM (inactive) | 38.5 µM (inactive)
COc1ccc(Cc2ccccc2C(=O)O)c2ccccc12 | 30.6 µM (inactive) | 18.8 µM (inactive) | 21 µM (inactive) | 21.8 µM (inactive) | 18.8 µM (inactive) | 28.2 | 32 µM (inactive) | 22.2 µM (inactive) | 32.1 µM (inactive) | 31.2 µM (inactive) | 26.4 µM (inactive) | 40.6 µM (inactive) | 22 µM (inactive) | – | 24 µM (inactive) | 36.6 µM (inactive) | 44.3 µM (inactive) | 25.1 µM (inactive) | 12.1 µM (inactive) | 31.5 µM (inactive)
O=C1/C(=C/c2ccc3c(c2)OCO3)CCC1CN1CCOCC1 (stereo not drawn) | 16.1 µM (inactive) | 17.4 µM (inactive) | 1.44 µM (inactive) | 7.31 µM (inactive) | 9.89 µM (inactive) | 2.94 | 3.36 µM (inactive) | 12 µM (inactive) | 15.8 µM (inactive) | 10.7 µM (inactive) | 16.6 µM (inactive) | 18.4 µM (inactive) | 14.3 µM (inactive) | 1.95 µM (inactive) | 12.4 µM (inactive) | 6.73 µM (inactive) | 11.4 µM (inactive) | 3.4 µM (inactive) | 3.84 µM (inactive) | 1.65 µM (inactive)
O=[N+]([O-])c1cccc2nc3ccccc3c(NCCc3cccc[n+]3[O-])c12 | – | < 0.0141 µM (active) | < 0.0427 µM (active) | < 0.0144 µM (active) | < 0.0183 µM (active) | < 0.0138 | < 0.01 µM (active) | 0.0619 µM (active) | < 0.0193 µM (active) | 0.0103 µM (active) | < 0.0212 µM (active) | 0.153 µM (active) | < 0.0116 µM (active) | < 0.0144 µM (active) | < 0.0486 µM (active) | 0.0541 µM (active) | 0.0196 µM (active) | < 0.01 µM (active) | 0.0782 µM (active) | < 0.01 µM (active)
CCOC(=O)N1CCN(c2ccc3c(C)cc(C)nc3n2)CC1 | > 100 µM (inactive) | > 100 µM (inactive) | > 100 µM (inactive) | > 100 µM (inactive) | > 100 µM (inactive) | > 100 | > 100 µM (inactive) | > 100 µM (inactive) | > 100 µM (inactive) | > 100 µM (inactive) | > 100 µM (inactive) | > 100 µM (inactive) | > 100 µM (inactive) | > 100 µM (inactive) | > 100 µM (inactive) | > 100 µM (inactive) | > 100 µM (inactive) | > 100 µM (inactive) | > 100 µM (inactive) | > 100 µM (inactive)
c1ccc(CSc2nnc3c4ccccc4c4ccccc4c3n2)cc1 | – | > 88.3 µM (inactive) | > 36.2 µM (inactive) | 86.1 µM (inactive) | 21.2 µM (inactive) | > 100 | 35.2 µM (inactive) | 36.6 µM (inactive) | > 57.7 µM (inactive) | 61 µM (inactive) | 27.2 µM (inactive) | 17.7 µM (inactive) | 58.1 µM (inactive) | 39.1 µM (inactive) | 26.9 µM (inactive) | 48.1 µM (inactive) | > 52.1 µM (inactive) | > 100 µM (inactive) | 36.2 µM (inactive) | 30.2 µM (inactive)
Cn1c2c(c3ccccc31)CCN1C(=O)C3SC21C1C(=O)N(c2ccccc2)C(=O)C31 (stereo not drawn) | > 100 µM (inactive) | – | 25 µM (inactive) | > 100 µM (inactive) | > 100 µM (inactive) | > 100 | > 100 µM (inactive) | 0.0256 µM (active) | > 100 µM (inactive) | 33 µM (inactive) | > 100 µM (inactive) | > 100 µM (inactive) | > 100 µM (inactive) | 38.5 µM (inactive) | 23.8 µM (inactive) | > 100 µM (inactive) | > 100 µM (inactive) | 25.4 µM (inactive) | > 100 µM (inactive) | 35.3 µM (inactive)
